These results are taken from the NIST ThermoML archive (doi:10.1016/j.jct.2004.09.022).

The term mass density denotes mass per unit of volume. In general, refractive index refers to the speed of light in vacuum divided by its phase velocity in the sample.

For series [1] the following is noted: Liquid; for mass density: 293.15 K, 101.33 kPa.
Series [2] in a line: refractive index (Na D-line) (dimensionless). Particulars: 293.15 K; 101.33 kPa; Liquid; Standard Abbe refractometry.

± gives the expanded uncertainty stated by the source.

On to `CC(C)CCO` [3-methylbutan-1-ol], for which the mass density in series [1] (Vibrating tube method) was determined as 808.4 ± 2.2 kg/m3. The Normal boiling temperature in series [1] (Fisher boiling point apparatus) was found to be 131.40 ± 0.2 °C. Moreover, in series [2], the refractive index was determined as 1.4075 ± 0.0008.
Turning to `O` [water], in series [1], the mass density was determined as 999.9 ± 0.6 kg/m3 and the Normal boiling temperature stood at 100.1 ± 0.2 °C. Further, the refractive index in series [2] is recorded as 1.3324 ± 0.0008.
